According to patent publication US8580773B2, “Small-molecule inhibitors of the androgen receptor” (The Regents of the University of California, priority 2008, dated 2013):
Substitutions are numbered along the chain they refer to. “Also recorded” adds a separate entry of the source. Structures can show the parent of a compound that is named as a salt.

Legend:
HEK293 cells = experiment: Cell proliferation (DNA content, DAPI) in control HEK293 cells; format: cell-based; details: PP 100 nM, HH 100 nM, BiC 1 μM
Excerpt: LN-AR cells were created by retroviral infection of a high-expressing AR vector into LNCaP cells, and proliferate independent of androgen in cell culture, unlike their parental line (Chen, C. D., et al., Molecular determinants of resistance to antiandrogen therapy. Nat Med, 2004. 10(1): p. 33-9). HEK293 cells were used as a control. Cells were transferred to charcoal-stripped media two days before they were split and plated in quadruplicate at a density of approximately 20,000 cells/well in 48-well plates. […] Media were changed every day, using a single preparation to ensure consistent compound concentrations. Proliferation was determined by measuring the DNA content of the cells in each well. Each day, the cells in four wells were fixed in 100% cold methanol, followed by staining for 5 min at RT with 0.2 ng/mL 4′,6-diamidino-2-phenylindole (DAPI) in PBS. The cells were washed once in PBS, then read on a fluorescence plate reader using 365/439 excitation/emission wavelengths. LAPC4 and LNCaP cells proliferated to a much greater degree in the presence of DHT, while LN-AR cells proliferated in the presence and absence of DHT.

[1] = target: T1, AR with a mutation (T877A) (Homo sapiens, UniProt P10275, T878A); experiment: PSA-luciferase reporter transcription assay in LNCaP cells; format: cell-based; details: 3 nM DHT
T1 construct: that each express endogenous AR; endogenous in cells; host or cells: LNCaP
T1 sequence (P10275 1-920 T878A): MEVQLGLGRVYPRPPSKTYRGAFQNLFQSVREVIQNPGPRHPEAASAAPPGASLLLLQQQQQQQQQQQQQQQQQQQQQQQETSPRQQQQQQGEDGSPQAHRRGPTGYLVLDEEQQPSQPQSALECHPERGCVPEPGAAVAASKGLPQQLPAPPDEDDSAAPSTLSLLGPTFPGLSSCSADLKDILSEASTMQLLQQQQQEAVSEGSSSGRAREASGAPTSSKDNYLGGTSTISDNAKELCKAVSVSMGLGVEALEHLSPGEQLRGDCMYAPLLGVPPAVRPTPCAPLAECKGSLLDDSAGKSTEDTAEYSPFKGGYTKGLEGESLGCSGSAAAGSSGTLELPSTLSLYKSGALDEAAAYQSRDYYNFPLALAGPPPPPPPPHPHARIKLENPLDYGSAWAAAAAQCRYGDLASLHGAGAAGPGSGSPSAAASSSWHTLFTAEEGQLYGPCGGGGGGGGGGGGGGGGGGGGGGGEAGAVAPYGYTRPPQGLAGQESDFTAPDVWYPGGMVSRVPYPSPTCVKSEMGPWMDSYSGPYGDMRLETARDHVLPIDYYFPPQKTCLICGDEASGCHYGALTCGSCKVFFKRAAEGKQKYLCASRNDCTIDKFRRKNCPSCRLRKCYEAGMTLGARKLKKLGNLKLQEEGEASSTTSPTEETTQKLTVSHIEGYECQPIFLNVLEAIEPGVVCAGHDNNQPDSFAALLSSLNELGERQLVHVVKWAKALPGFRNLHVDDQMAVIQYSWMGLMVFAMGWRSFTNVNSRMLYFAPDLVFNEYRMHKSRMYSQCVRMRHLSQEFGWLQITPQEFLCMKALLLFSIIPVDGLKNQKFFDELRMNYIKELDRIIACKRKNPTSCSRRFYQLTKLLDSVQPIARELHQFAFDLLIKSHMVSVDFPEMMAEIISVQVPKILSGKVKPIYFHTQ
Description: Cells were transfected with two reporter plasmids, a PSA-luciferase construct (androgen responsive), and an SV40-renilla luciferase construct as an internal control. The following day, the cells were split and drugs added in the presence of 3 nM DHT. Luciferase production was measured the following day (Dual luciferase assay kit, Promega).
Synergism can be defined as a combination index of less than one, using the non-exclusive assumption described by Chou et al. (Chou, T. C. and P. Talalay, Quantitative analysis of dose-effect relationships: the combined effects of multiple drugs or enzyme inhibitors. Adv Enzyme Regul, 1984. 22: p. 27-55).

human androgen receptor = target: T2, human androgen receptor (Homo sapiens, UniProt P10275); experiment: Screen of 1040 FDA-approved drugs and natural products for AR antagonists (MMTV-luciferase transcription assay and C-AR-Y FRET conformation assays); format: cell-based; details: test compounds at 10 μM, 10 nM DHT, 24 hours; validated by dose-response
T2 construct: expressed in transfected cells; host or cells: HEK293 and LAPC4 stably expressing C-AR-Y; HEK293 transiently transfected with native AR
T2 sequence (P10275 1-920): T1 sequence (P10275 1-920 T878A) with A878T
Description: A library assembled by the NINDS was screened. The library consisted of 1040 FDA-approved drugs and natural products. A basic strategy to select and compare compounds from each of the primary screens was established (FIG. 1).
The transcription assay was conducted by transfecting 10 cm plates of HEK293 cells with plasmids encoding MMTV-luciferase, SV40-renilla luciferase, and native AR. […] FRET is fluorescence resonance energy transfer between cyan and yellow fluorescent protein derivatives (CFP, YFP) that are fused to the amino and carboxyl termini of the human androgen receptor. When ligand activates the receptor, a conformational change takes place that brings the CFP and YFP into close proximity, thereby allowing FRET to occur. This spectroscopic change is detected using a fluorescence plate reader.
For the transcription assay, transfected cells were pooled before being plated into 96-well dishes with the test compounds at 10 μM. […] Cell and compound transfers were accomplished with a liquid handling robot. Cells were cultured for 24 hours in the presence of 10 nM DHT and the test compounds. After 24 hours, cells were either lysed by freeze-thaw (transcription assay), or fixed in 4% paraformaldehyde for reading on the FPR (FRET assays). Each compound was tested in duplicate in the initial screen.
The compounds were sorted on the basis of anti-androgen effects. […] This eliminated situations in which one test gave a strong response, and the replicate had none. […] For the FRET assays, toxic compounds were easily detected because of their effect on raw CFP and YFP signal, and compounds that reduced this signal below two standard deviations were eliminated.
The top 50 compounds identified in each primary assay were then tested in the other two assays.

prostate [2] = experiment: Prostate weight in mice after four weeks of treatment; format: in vivo; details: male mice, 5 times per week for four weeks; BiC 100 mg/kg PO, PP 1 mg/kg IP, or the combination
Description: Animals were treated 5 times per week for four weeks. At the end of the study period, animals were sacrificed and prostate tissue weighed. After weighing, the tissue was divided in half for pathological and genetic studies. […] (FIG. 7).

AR = target: T3, AR (Homo sapiens, UniProt P10275, T878A); experiment: DHT titration against inhibitor, PSA-luciferase reporter in LNCaP cells (competitive vs non-competitive); format: cell-based; details: moderate dose of inhibitor, DHT titrated
T3 construct: that each express endogenous AR; endogenous in cells; host or cells: LNCaP

native androgen receptor = target: T4, native androgen receptor (Homo sapiens, UniProt P10275); experiment: PSA-luciferase reporter with CMV-renilla control in LAPC4 cells (THP); format: cell-based; details: LAPC4, DHT and increasing amounts of compound
T4 construct: that each express endogenous AR; endogenous in cells; host or cells: LAPC4
T4 sequence (P10275 1-920): T1 sequence (P10275 1-920 T878A) with A878T
Excerpt: LAPC4 cells, a prostate cancer cell line that expresses native androgen receptor, were transfected with a PSA-luciferase reporter, and a CMV-renilla luciferase control.

[3] = system: androgen-regulated genes in the prostate; experiment: Quantitative PCR of androgen-regulated genes in mouse prostate, normalized to RPL19; format: in vivo; details: mice
Description: A cohort of mice were castrated as a positive control.
For quantitative PCR, RNA was isolated from mouse prostates and reverse-transcribed. The expression of several androgen-regulated genes, of which a subset is shown (FIG. 13), was determined by using QPCR and normalizing to the expression of the housekeeping gene RPL19.

dorsal prostate = experiment: Histology of mouse dorsal prostate after 5 weeks of treatment; format: in vivo; details: FVB male mice, THP or BiC alone, or combination
prostate [4] = experiment: Prostate wet weight in FVB male mice after 5 weeks of treatment; format: in vivo

Cc1cc(/C=C/c2ccc3cc(N(C)C)ccc3[n+]2C)c(C)n1-c1ccccc1 [PP, 6-Dimethylamino-2-[2-(2,5-dimethyl-1-phenyl-1H-pyrrol-3-yl)-vinyl]-1-methyl-quinolinium, pamoate salt, reference compound]
Non-specific growth inhibition (HEK293 cells): Neither compound exhibited non-specific growth inhibition

Harman
IC50 [1]: 380 nM

COc1cc2ccc(=O)oc2cc1O [Scopoletin]
Anti-androgen activity in screen (human androgen receptor): previously unrecognized anti-androgen activity

CC(O)(CS(=O)(=O)c1ccc(F)cc1)C(=O)Nc1ccc(C#N)c(C(F)(F)F)c1 (stereo not shown) [BiC, bicalutamide]
Reduction of prostate weight (prostate [2]): 35%

O=c1ccc2cc(O[C@@H]3O[C@H](CO)[C@@H](O)[C@H](O)[C@H]3O)c(O)cc2o1 [Esculin]
Anti-androgen activity in screen (human androgen receptor): previously unrecognized anti-androgen activity

CC(C)(O)C(=O)Nc1ccc([N+](=O)[O-])c(C(F)(F)F)c1 [OH—F, hydroxy-flutamide, reference compound]
Anti-androgen activity in screen (human androgen receptor): top hits
Mode of antagonism on DHT titration (AR): DHT overcame the inhibitory effect; also recorded: consistent with a competitive antagonist

Cc1cc(/C=C/C2CCc3cc(N(C)C)ccc3N2C)c(C)n1-c1ccccc1 (stereo not shown) [THP, {2-[2-(2,5-Dimethyl-1-phenyl-1H-pyrrol-3-yl)-vinyl]-1-methyl-1,2,3,4-tetrahydro-quinolin-6-yl}-dimethyl-amine]
Inhibition of androgen receptor-mediated transcription (normalized luciferase activity) (native androgen receptor): strong inhibition of androgen receptor-mediated transcription
Expression of androgen-regulated genes in the prostate (QPCR) ([3]; 2 mg/kg THP): modest effects
Expression of androgen-regulated genes in the prostate (QPCR) ([3]; 20 mg/kg THP): significantly decreased the transcription of many androgen regulated genes
Atrophy of the dorsal prostate by histological examination (dorsal prostate): modest atrophy
Appearance of the prostate (prostate [4]; 20 mg/kg THP, 5 weeks): abnormal milky appearance of the prostate
Change in prostate wet weight (prostate [4]; 5 weeks daily M-F, 1 mg/kg PP, 100 mg/kg BiC, 20 mg/kg THP, or 2 mg/kg THP + 100 mg/kg BiC): did not reduce overall wet weight
